Source: patent US20230027985A1, “SUBSTITUTED HYDANTOINAMIDES AS ADAMTS7 ANTAGONISTS” (Bayer Aktiengesellschaft, priority 2019, published 2023)

What was measured:
ADAMTS4 = target: T1, ADAMTS4 (Homo sapiens, UniProt O75173); test: Selectivity assay for ADAMTS-7 modulators (FRET), ADAMTS4; format: biochemical; conditions: 50 nM enzyme (R&D 4307-AD), 1 μM Dabcyl/Edans FRET substrate, 120 min at 32° C.
T1 construct: purchased R&D 4307-AD
T1 sequence (O75173 213-685 limits assumed): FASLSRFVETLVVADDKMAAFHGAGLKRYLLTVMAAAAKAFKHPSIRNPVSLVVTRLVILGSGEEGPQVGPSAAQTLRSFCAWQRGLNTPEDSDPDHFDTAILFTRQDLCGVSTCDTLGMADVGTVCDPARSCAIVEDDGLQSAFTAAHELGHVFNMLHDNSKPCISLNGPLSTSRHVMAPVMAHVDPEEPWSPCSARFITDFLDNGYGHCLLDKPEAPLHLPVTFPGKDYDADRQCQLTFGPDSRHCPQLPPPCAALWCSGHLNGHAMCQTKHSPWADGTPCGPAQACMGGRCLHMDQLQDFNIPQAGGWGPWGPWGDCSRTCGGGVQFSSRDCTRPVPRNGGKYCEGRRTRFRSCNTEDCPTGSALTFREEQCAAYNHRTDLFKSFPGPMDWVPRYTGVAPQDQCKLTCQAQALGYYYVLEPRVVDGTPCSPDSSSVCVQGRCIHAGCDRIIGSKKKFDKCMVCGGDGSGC
In short: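 Enzyme in 50 mM Tris pH 7.5, 150 mM NaCl, 10 mM CaCl2, 0.05% Brij, preincubated with compound in DMSO; reaction started with FRET substrate. Fluorescence increase read after 120 min at 32° C; IC50 from percent inhibition versus compound concentration.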

[1] = target: T2, Purified recombinant ADAMTS-7 (rat prodomain/human catalytic domain, SEQ ID No. 01 or 02) (Homo sapiens, UniProt Q9UKP4); test: Assay for ADAMTS-7 enzymatic activity (FRET substrate cleavage); format: biochemical; conditions: FRET substrate SEQ ID No. 11, 120 min at 32° C.; read-out: ADAMTS7-IC50
T2 construct: rat ADAMTS-7 signal peptide + prodomain (rat 1-217, Q1EHB3) (N); 2xStrep tag (C); 6xHis tag (C); made in house; host or cells: Expi293 cells
T2 sequence (Q9UKP4 237-537): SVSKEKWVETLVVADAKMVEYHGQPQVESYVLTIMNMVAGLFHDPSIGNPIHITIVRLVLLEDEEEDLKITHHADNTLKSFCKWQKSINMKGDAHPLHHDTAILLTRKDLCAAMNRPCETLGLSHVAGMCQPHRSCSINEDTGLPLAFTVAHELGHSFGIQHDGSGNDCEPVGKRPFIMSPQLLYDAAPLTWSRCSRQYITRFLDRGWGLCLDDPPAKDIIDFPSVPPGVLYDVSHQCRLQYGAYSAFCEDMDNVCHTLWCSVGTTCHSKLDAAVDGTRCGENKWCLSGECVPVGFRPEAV
In short: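 IC50 values were fitted from percent inhibition across test-compound concentrations. Fluorescence gain (ex 485, em 520 nm) reports cleavage of a thrombospondin-1 (275-289) FRET peptide with QXL520 quencher, after 120 min at 32 °C. The enzyme, about 20 nM, was in HEPES pH 8.0 buffer with NaCl, CaCl2, ZnCl2 and Brij.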

Row | Structure (SMILES) | IC50 (ADAMTS4) [µM] | IC50 [1] [nM]
1 | O=C1NC(=O)[C@](CNC(=O)c2cnc(-c3ccccc3)o2)(C2CC2)N1 [Example 59, N-{[(4R)-4-cyclopropyl-2,5-dioxoimidazolidin-4-yl]methyl}-2-phenyl-1,3-oxazole-5-carboxamide] | 11.3 | 550
2 | O=C1NC(=O)C(CNC(=O)c2cnn(-c3ccc(F)cc3)n2)(C2CC(F)(F)C2)N1 (racemic) [Example 155, rac-N-{[4-(3,3-difluorocyclobutyl)-2,5-dioxoimidazolidin-4-yl]methyl}-2-(4-fluorophenyl)-2H-1,2,3-triazole-4-carboxamide] | > 50 | 220
3 | O=C1NC(=O)C(CNC(=O)c2cnn(-c3ccc(F)cc3)n2)(C2CCC2)N1 (racemic) [Example 69, rac-N-[(4-cyclobutyl-2,5-dioxoimidazolidin-4-yl)methyl]-2-(4-fluorophenyl)-2H-1,2,3-triazole-4-carboxamide] | 35 | 98

Compounds with a lower IC50 (ADAMTS4), results first:

Row | IC50 (ADAMTS4) [µM] | IC50 [1] [nM] | Structure (SMILES)
4 | 5.6 | 550 | CC(C)(C)C1(CNC(=O)c2cnn(-c3ccccc3)c2)NC(=O)NC1=O (racemic) [Example 58, rac-N-[4-tert-butyl-2,5-dioxoimidazolidin-4-yl)methyl]-1-phenyl-1H-pyrazole-4-carboxamide]
5 | 8.4 | 259 | O=C1NC(=O)[C@](CNC(=O)c2cnn(-c3ccccn3)n2)(C2CC2)N1 [Example 60, N-{[(4R)-4-cyclopropyl-2,5-dioxoimidazolidin-4-yl]methyl}-2-(pyridin-2-yl)-2H-1,2,3-triazole-4-carboxamide]
6 | 2.8 | 200 | O=C1NC(=O)C(CNC(=O)c2cnn(-c3ccccc3)n2)(c2ccncc2)N1 (racemic) [Example 21, rac-N-{[2,5-dioxo-4-(pyridin-4-yl)imidazolidin-4-yl]methyl}-2-phenyl-2H-1,2,3-triazole-4-carboxamide]
7 | 2.77 | 8 | CC(C)C1(CNC(=O)c2cnn(-c3ccc(F)cc3)n2)NC(=O)NC1=O (stereo not drawn) [Example 76, ent-N-[(2,5-dioxo-4-(propan-2-yl)imidazolidin-4-yl)methyl]-2-(4-fluorophenyl)-2H-1,2,3-triazole-4-carboxamide]
